One experiment concerns the target human PD-L1 (Homo sapiens (Human), UniProt Q9NZQ7). The experiment can be described thus: T cell activation luciferase reporter cell culture system (T Cell Activation Assay). It counts as cell-based. The settings on record: luciferase reporter assay; PD-L1 aAPC/CHO-K1 cells with PD-1 effector Jurkat T cells.
For experiment [1], the target named is PD-L1 His protein / PD-1 Fc protein (Homo sapiens (Human), UniProt Q9NZQ7). The experiment can be described thus: HTRF Assay (PD-1/PD-L1 interaction). The conditions noted are these: PD-L1 His 6 nM, PD-1 Fc 6 nM. It is filed as binding.

The values below come from patent US20240246964A1 (Arbutus Biopharma Corporation, priority 2021, published 2024).

pEC50, pIC50: −log10 of the molar value.

PD-L1 His protein / PD-1 Fc protein, sequence (Q9NZQ7 19-238): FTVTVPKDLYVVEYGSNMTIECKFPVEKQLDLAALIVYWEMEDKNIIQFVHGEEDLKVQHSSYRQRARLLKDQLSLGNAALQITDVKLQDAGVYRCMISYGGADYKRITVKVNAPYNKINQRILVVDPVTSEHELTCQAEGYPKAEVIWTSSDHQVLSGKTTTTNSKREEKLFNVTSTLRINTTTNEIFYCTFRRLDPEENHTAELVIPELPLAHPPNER
human PD-L1, sequence (Q9NZQ7 19-290): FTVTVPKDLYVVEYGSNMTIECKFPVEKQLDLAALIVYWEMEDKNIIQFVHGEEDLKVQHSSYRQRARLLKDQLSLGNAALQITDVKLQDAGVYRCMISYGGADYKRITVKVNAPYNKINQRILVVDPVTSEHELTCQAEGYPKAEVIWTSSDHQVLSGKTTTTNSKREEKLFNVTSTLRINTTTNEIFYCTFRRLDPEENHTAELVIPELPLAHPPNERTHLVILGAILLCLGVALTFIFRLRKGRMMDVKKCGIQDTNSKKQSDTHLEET

What is called pEC50 is the EC50 on a negative log10 scale, so that one unit is a factor of ten. A low value points to a large EC50. A word on the pIC50: it is the negative decadic logarithm of the IC50, by convention in mol/L. Molecule `COc1cc(-c2nccc(-c3ccnc(-c4cnc5c(CNC[C@@H]6CCC(=O)N6)cn(C)c5c4)c3Cl)c2Cl)ccc1CNC[C@@H]1CCC(=O)N1` [Compound 16, (S)-5-(((4-(3,3′-dichloro-2′-(1-methyl-3-(((((S)-5-oxopyrrolidin-2-yl)methyl)amino)methyl)-1H-pyrrolo[3,2-b]pyridin-6-yl)-[4,4′-bipyridin]-2-yl)-2-methoxybenzyl)amino)methyl)pyrrolidin-2-one] showed a pEC50 at human PD-L1 of 6.45. The same molecule gave a pIC50 in experiment [1] of 9.00.

`COc1cc(-c2nccc(-c3cccc(-c4ccc5c(CNC[C@@H]6CCC(=O)N6)cn(C)c5n4)c3Cl)c2Cl)ccc1CNC[C@@H]1CCC(=O)N1` [Compound 17, (S)-5-((((6-(2-chloro-3-(3-chloro-2-(3-methoxy-4-(((((S)-5-oxopyrrolidin-2-yl)methyl)amino)methyl)phenyl)pyridin-4-yl)phenyl)-1-methyl-1H-pyrrolo[2,3-b]pyridin-3-yl)methyl)amino)methyl)pyrrolidin-2-one]: the pEC50 at human PD-L1 is 7.53. This molecule also had a pIC50 in experiment [1] of 8.62.

At human PD-L1, `COc1cc(-c2nccc(-c3cccc(-c4cc5c(c(OC)c4)CN(C[C@@H]4CCC(=O)N4)CC5)c3Cl)c2Cl)ccc1CNC[C@@H]1CCC(=O)N1` [Compound 18, (S)-5-((6-(2-chloro-3-(3-chloro-2-(3-methoxy-4-(((((S)-5-oxopyrrolidin-2-yl)methyl)amino)methyl)phenyl)pyridin-4-yl)phenyl)-8-methoxy-3,4-dihydroisoquinolin-2(1H)-yl)methyl)pyrrolidin-2-one] showed a pEC50 of 7.12. For the same molecule, in experiment [1], the negative-log IC50 (pIC50) is 7.40.

Regarding `COc1nc(-c2cccc(-c3ccnc(-c4cnc5c(CNC6CCN(C(C)=O)CC6)cn(C)c5c4)c3Cl)c2Cl)ccc1CNC[C@@H]1CCC(=O)N1` [Compound 21, (S)-5-((((6-(3-(2-(3-(((1-acetylpiperidin-4-yl)amino)methyl)-1-methyl-1H-pyrrolo[3,2-b]pyridin-6-yl)-3-chloropyridin-4-yl)-2-chlorophenyl)-2-methoxypyridin-3-yl)methyl)amino)methyl)pyrrolidin-2-one], on human PD-L1, the pEC50 was 7.12. The molecule also showed a pIC50 in experiment [1] of 10.00.

At human PD-L1, `COc1nc(-c2cccc(-c3ccnc(-c4cnc5c(CNC[C@@H]6CCO6)cn(C)c5c4)c3Cl)c2Cl)ccc1CNC[C@@H]1CCC(=O)N1` [Compound 22, (S)-5-((((6-(2-chloro-3-(3-chloro-2-(1-methyl-3-(((((S)-oxetan-2-yl)methyl)amino)methyl)-1H-pyrrolo[3,2-b]pyridin-6-yl)pyridin-4-yl)phenyl)-2-methoxypyridin-3-yl)methyl)amino)methyl)pyrrolidin-2-one] gave a pEC50 of 6.87. For the same molecule, the pIC50 in experiment [1] is 9.52.

The molecule `COc1cc(-c2nccc(-c3cccc(-c4ccc(CNC[C@@H]5CCC(=O)N5)c(OC)n4)c3Cl)c2Cl)cnc1CNC[C@@H]1CCC(=O)N1` [Compound 23, (S)-5-((((6-(2-chloro-3-(3-chloro-5′-methoxy-6′-(((((S)-5-oxopyrrolidin-2-yl)methyl)amino)methyl)-[2,3′-bipyridin]-4-yl)phenyl)-2-methoxypyridin-3-yl)methyl)amino)methyl)pyrrolidin-2-one] showed a pEC50 on human PD-L1 of 7.44. Further, in experiment [1], the pIC50 was 10.00.

In the case of `COc1nc(-c2cccc(-c3ccnc(-c4ccc5c(c4)N(C)CCN(C[C@H](C)O)C5)c3Cl)c2Cl)ccc1CNC[C@@H]1CCC(=O)N1` [Compound 24, (S)-5-((((6-(2-chloro-3-(3-chloro-2-(4-((S)-2-hydroxypropyl)-1-methyl-2,3,4,5-tetrahydro-1H-benzo[e][1,4]diazepin-8-yl)pyridin-4-yl)phenyl)-2-methoxypyridin-3-yl)methyl)amino)methyl)pyrrolidin-2-one], the pEC50 at human PD-L1 was 7.06. The molecule also showed a pIC50 in experiment [1] of 9.10.

On human PD-L1, `COc1nc(-c2cccc(-c3ccnc(-c4ccc5c(c4)OCCN(C[C@H](C)O)C5)c3Cl)c2Cl)ccc1CNC[C@@H]1CCC(=O)N1` [Compound 25, (S)-5-((((6-(2-chloro-3-(3-chloro-2-(4-((S)-2-hydroxypropyl)-2,3,4,5-tetrahydrobenzo[f][1,4]oxazepin-8-yl)pyridin-4-yl)phenyl)-2-methoxypyridin-3-yl)methyl)amino)methyl)pyrrolidin-2-one] gave a pEC50 of 6.48. The molecule further had a pIC50 in experiment [1] of 9.30.

The molecule `COc1nc(-c2cccc(-c3ccnc(-c4ccc5c(c4)OCCNC5)c3Cl)c2Cl)ccc1CNC[C@@H]1CCC(=O)N1` [Compound 26, (S)-5-((((6-(2-chloro-3-(3-chloro-2-(2,3,4,5-tetrahydrobenzo[f][1,4]oxazepin-8-yl)pyridin-4-yl)phenyl)-2-methoxypyridin-3-yl)methyl)amino)methyl)pyrrolidin-2-one] gave a pEC50 at human PD-L1 of 7.11. In addition, the pIC50 in experiment [1] was 9.70.

For the molecule `COc1nc(-c2cccc(-c3ccnc(-c4ccc5c(CNC6CCN(C(C)=O)CC6)cn(C)c5c4)c3Cl)c2Cl)ccc1CNC[C@@H]1CCC(=O)N1` [Compound 28, (S)-5-((((6-(3-(2-(3-(((1-acetylpiperidin-4-yl)amino)methyl)-1-methyl-1H-indol-6-yl)-3-chloropyridin-4-yl)-2-chlorophenyl)-2-methoxypyridin-3-yl)methyl)amino)methyl)pyrrolidin-2-one], the pEC50 at human PD-L1 was 7.32. In experiment [1], this molecule had a pIC50 of 8.92.

Regarding `COc1nc(-c2cccc(-c3ccnc(-c4ccc5c(CNCCO)cn(C)c5c4)c3Cl)c2Cl)ccc1CNC[C@@H]1CCC(=O)N1` [Compound 29, (S)-5-((((6-(2-chloro-3-(3-chloro-2-(3-(((2-hydroxyethyl)amino)methyl)-1-methyl-1H-indol-6-yl)pyridin-4-yl)phenyl)-2-methoxypyridin-3-yl)methyl)amino)methyl)pyrrolidin-2-one], at human PD-L1, the pEC50 was 7.03. For the same molecule, the negative logarithm of the IC50 (pIC50) in experiment [1] is 8.96.

On to `COCCNCc1cn(C)c2cc(-c3nccc(-c4cccc(-c5ccc(CNC[C@@H]6CCC(=O)N6)c(OC)n5)c4Cl)c3Cl)ccc12` [Compound 30, (S)-5-((((6-(2-chloro-3-(3-chloro-2-(3-(((2-methoxyethyl)amino)methyl)-1-methyl-1H-indol-6-yl)pyridin-4-yl)phenyl)-2-methoxypyridin-3-yl)methyl)amino)methyl)pyrrolidin-2-one], for which, at human PD-L1, the pEC50 is 7.00. For the same molecule, in experiment [1], the pIC50 was 7.81.

As to `CNCc1cn(C)c2cc(-c3nccc(-c4cccc(-c5ccc(CNC[C@@H]6CCC(=O)N6)c(OC)n5)c4Cl)c3Cl)ccc12` [Compound 31, (S)-5-((((6-(2-chloro-3-(3-chloro-2-(1-methyl-3-((methylamino)methyl)-1H-indol-6-yl)pyridin-4-yl)phenyl)-2-methoxypyridin-3-yl)methyl)amino)methyl)pyrrolidin-2-one], the pEC50 on human PD-L1 is 6.87. In addition, the pIC50 in experiment [1] was 9.52.

`CCNCc1cn(C)c2cc(-c3nccc(-c4cccc(-c5ccc(CNC[C@@H]6CCC(=O)N6)c(OC)n5)c4Cl)c3Cl)ccc12` [Compound 32, (S)-5-((((6-(2-chloro-3-(3-chloro-2-(3-((ethylamino)methyl)-1-methyl-1H-indol-6-yl)pyridin-4-yl)phenyl)-2-methoxypyridin-3-yl)methyl)amino)methyl)pyrrolidin-2-one] had a pEC50 at human PD-L1 of 6.58. For the same molecule, the pIC50 in experiment [1] was 9.15.

Turning to `COc1nc(-c2cccc(-c3ccnc(-c4ccc5c(CN(C)C)cn(C)c5c4)c3Cl)c2Cl)ccc1CNC[C@@H]1CCC(=O)N1` [Compound 33, (S)-5-((((6-(2-chloro-3-(3-chloro-2-(3-((dimethylamino)methyl)-1-methyl-1H-indol-6-yl)pyridin-4-yl)phenyl)-2-methoxypyridin-3-yl)methyl)amino)methyl)pyrrolidin-2-one], the negative logarithm of the EC50 (pEC50) on human PD-L1 is 6.65. The molecule also showed a pIC50 in experiment [1] of 9.40.

Molecule `COc1nc(-c2cccc(-c3ccnc(-c4ccc5c(CNC[C@@H]6CCO6)cn(C)c5c4)c3Cl)c2Cl)ccc1CNC[C@@H]1CCC(=O)N1` [Compound 34, (S)-5-((((6-(2-chloro-3-(3-chloro-2-(1-methyl-3-(((((S)-oxetan-2-yl)methyl)amino)methyl)-1H-indol-6-yl)pyridin-4-yl)phenyl)-2-methoxypyridin-3-yl)methyl)amino)methyl)pyrrolidin-2-one] gave a pEC50 at human PD-L1 of 6.91. In experiment [1], this molecule had a pIC50 of 7.14.

As to `COc1nc(-c2cccc(-c3ccnc(-c4ccc5c(CNC[C@H](C)O)cn(C)c5c4)c3Cl)c2Cl)ccc1CNC[C@@H]1CCC(=O)N1` [Compound 35, (S)-5-((((6-(2-chloro-3-(3-chloro-2-(3-((((S)-2-hydroxypropyl)amino)methyl)-1-methyl-1H-indol-6-yl)pyridin-4-yl)phenyl)-2-methoxypyridin-3-yl)methyl)amino)methyl)pyrrolidin-2-one], the pEC50 at human PD-L1 is 6.07. This molecule gave a pIC50 in experiment [1] of 8.96.

For the molecule `COc1nc(-c2cccc(-c3ccnc(-c4ccc5c(CNCC(C)(C)O)cn(C)c5c4)c3Cl)c2Cl)ccc1CNC[C@@H]1CCC(=O)N1` [Compound 36, (S)-5-((((6-(2-chloro-3-(3-chloro-2-(3-(((2-hydroxy-2-methylpropyl)amino)methyl)-1-methyl-1H-indol-6-yl)pyridin-4-yl)phenyl)-2-methoxypyridin-3-yl)methyl)amino)methyl)pyrrolidin-2-one], the pEC50 at human PD-L1 was 7.09. Besides, in experiment [1], the pIC50 is 8.47.

With `COc1nc(-c2cccc(-c3ccnc(-c4ccc5c(CNCC(C)C)cn(C)c5c4)c3Cl)c2Cl)ccc1CNC[C@@H]1CCC(=O)N1` [Compound 38, (S)-5-((((6-(2-chloro-3-(3-chloro-2-(3-((isobutylamino)methyl)-1-methyl-1H-indol-6-yl)pyridin-4-yl)phenyl)-2-methoxypyridin-3-yl)methyl)amino)methyl)pyrrolidin-2-one], at human PD-L1, the pEC50 was 6.43. The pIC50 in experiment [1] was 6.93.

At human PD-L1, `COc1nc(-c2cccc(-c3ccnc(-c4ccc5c(CN(C)CCO)cn(C)c5c4)c3Cl)c2Cl)ccc1CNC[C@@H]1CCC(=O)N1` [Compound 39, (S)-5-((((6-(2-chloro-3-(3-chloro-2-(3-(((2-hydroxyethyl)(methyl)amino)methyl)-1-methyl-1H-indol-6-yl)pyridin-4-yl)phenyl)-2-methoxypyridin-3-yl)methyl)amino)methyl)pyrrolidin-2-one] gave a pEC50 of 7.21. The pIC50 in experiment [1] was 9.00.
